# Measurements reported in the NIST ThermoML archive (doi:10.1016/j.jct.2017.11.005).
# ± gives the expanded uncertainty stated by the source.
# Conditions: Gas, Capillary tube (Ostwald / Ubbelohde) method
structure (smiles),measurement,setting,value
O=C=O [carbon dioxide],viscosity,"308.2 K, 1200 kPa",0.0153 ± 0.0005 mPa·s
same,viscosity,"308.2 K, 2070 kPa",0.0154 ± 0.0005 mPa·s
same,viscosity,"308.2 K, 11330 kPa",0.0638 ± 0.0012 mPa·s
same,viscosity,"308.2 K, 22090 kPa",0.0882 ± 0.0017 mPa·s
same,viscosity,"308.2 K, 34970 kPa",0.1068 ± 0.0021 mPa·s
same,viscosity,"308.2 K, 68930 kPa",0.1441 ± 0.0028 mPa·s
same,viscosity,"308.2 K, 101200 kPa",0.1733 ± 0.0036 mPa·s
same,viscosity,"308.2 K, 150520 kPa",0.222 ± 0.0047 mPa·s
same,viscosity,"323.2 K, 1270 kPa",0.0161 ± 0.0005 mPa·s
same,viscosity,"323.2 K, 2050 kPa",0.0163 ± 0.0005 mPa·s
same,viscosity,"323.2 K, 5040 kPa",0.0174 ± 0.0005 mPa·s
same,viscosity,"323.2 K, 11440 kPa",0.0398 ± 0.001 mPa·s
same,viscosity,"323.2 K, 20670 kPa",0.0711 ± 0.0015 mPa·s
same,viscosity,"323.2 K, 50820 kPa",0.112 ± 0.0024 mPa·s
same,viscosity,"323.2 K, 105530 kPa",0.1606 ± 0.0035 mPa·s
same,viscosity,"323.2 K, 150430 kPa",0.1953 ± 0.0043 mPa·s
